From patent US20180037605A1, “SYNTHETIC PEPTIDES AND ENZYMATIC FORMATION OF INTRACELLULAR HYDROGELS” (BRANDEIS UNIVERSITY, priority 2015, published 2018) come the findings set out here.

Read-outs that look alike come from different tables or passages of the source.

Data set [1] concerns esterase. Put plainly: Esterase-catalysed conversion of 1-t to 3 (analytical HPLC). Type of data set: biochemical, porcine.
For data set [2] the following is noted: 1.0 wt %, pH 7.4. The protocol: Peptides 1-t/1 were dissolved into distilled water, and the pH of the solution was adjusted carefully by adding 1M NaOH, and this was monitored with pH paper. After the pH of the solution reached 7.4, extra distilled water was added to make the final concentration, followed by the addition of esterase to induce enzymatic gelation.
To elucidate the enzyme-catalyzed self-assembly to form supramolecular nanofibrils inside cells after cellular uptake illustrated in FIG. 2A, the enzymatic transformation of 1-t (or 1) to 3 and the subsequent self-assembly of 3 at the concentration of 1.0 wt % was first examined. To study the enzymatic hydrogelation process of 1-t, analytical HPLC was used to evaluate the rate of enzymatic transformation and transmission electron microscopy (TEM) to examine the self-assembly.

Data set [3] has as its system HeLa cells. The settings on record: for uptake concentration (Cu) / intracellular concentration: 200 μM in culture medium. On the procedure: The HeLa cell line CCL-2™ was purchased from the American Type Culture Collection (ATCC, Manassas, Va., USA).
The following formula was used to calculate the intracellular concentration of the peptides.
Intracellular concentration=(c*300 uL)/(cell number*4*10^−9 cm^3)
where c=(fluorescence−15406.76945)/74174.36908. An average size for the common cells used in cell culture (HeLa) is 15-20 microns in diameter for a suspended cell (volume 4/3πr^3=4000 μm^3 or 4×10^−9 cm^3) (Moran et al., Cell 141:1262 (2010), which is hereby incorporated by reference in its entirety). Methanol was used to break the cell membrane and fully dissolve compounds 1-t, 2-t, and 3.
To quantify the intracellular concentration of the D-peptide derivatives, the procedure illustrated in FIG. 9A was used to determine the cellular uptake of 1-t, 1, and 2-t after treating HeLa cells with these molecules, respectively. […] The “uptake concentration (Cu)” of 1-t or 1 is the sum of 3 and 1-t (or 1) inside the cells.

With `O=C(CCC(=O)OCCNC(=O)[C@@H](Cc1ccccc1)NC(=O)[C@@H](Cc1ccccc1)NC(=O)CCNc1ccc([N+](=O)[O-])c2nonc12)NCCS(=O)(=O)O` [1-t], in data set [1] (1-t 100 μM, esterase 1 U/mL, 24 hours), the “1-t converted to 3 (HPLC)” value was “more than 50%”. Moreover, in data set [1] (pig, esterase from porcine liver, pH 7.4, 1-t 1.0 wt %, esterase 1 U/ml, 24 hours, read-out: 1-t converted to 3 (HPLC)), the metabolised at 24 h, 1 wt % was around 11%. The metabolised at 1 min, 1 wt % in data set [1] (pig, esterase from porcine liver, 1-t 1.0 wt %, pH 7.4, esterase 1 U/ml, 1 min, read-out: 1-t converted to 3 (analytical HPLC)) came to 2.5%. Besides, the solubility entry in data set [2] is “significantly enhanced the solubility”. In addition, the “enhancement of cellular uptake compared with incubation concentration” value is “about 3 fold” in data set [3] (50 μM, 24 hours); 12 fold in data set [3] (200 μM, 48 hours); around 4.5 fold in data set [3] (500 μM, 24 hours). For the same molecule, in data set [3] (24 hours), the “uptake concentration (Cu) / intracellular concentration” value is listed as 1.6 mM. Besides, the “intracellular concentration after washing five times with PBS buffer” value in data set [3] (200 μM, 24 hour incubation) is on record as 1.4 mM. Moreover, the “uptake concentration relative to incubation (extracellular) concentration” value in data set [3] (200 μM, 24 hours) was 8 fold. This molecule also registered a Cu in data set [3] (200 μM, 48 hours) of 2.4 mM. In data set [3] (incubation medium 25 μM, 24 hours), this molecule displayed an intracellular concentration of 28 µM.
On to `O=C(O)CCC(=O)OCCNC(=O)[C@@H](Cc1ccccc1)NC(=O)[C@@H](Cc1ccccc1)NC(=O)CCNc1ccc([N+](=O)[O-])c2nonc12` [compound 1], for which, in data set [2], the solubility result is reported as “less soluble than 1-t”. The “uptake concentration (Cu) / intracellular concentration” value in data set [3] (24 hours) is listed as “hardly detected”.
